Test results published in ChEMBL document CHEMBL4725460, “Novel Amide-Substituted Heterocyclic Compounds for Treating Inflammatory and Autoimmune Diseases” (ACS Med Chem Lett, 2020).

Assay: Inhibition of IFNalpha in human whole blood assessed as reduction in IFNalpha-induced STAT phosphorylation by fluorescence assay
Format: tissue-based

Compound | IC50 [nM]
[2H]C([2H])([2H])NC(=O)c1nnc(NC(=O)NCC#C)cc1Nc1cccc(-c2ncn(C)n2)c1OC | 60
COC(=O)Nc1cc(Nc2cccc(-c3ncn(C)n3)c2OC)c(C(N)=O)nn1 | 70
[2H]C([2H])([2H])NC(=O)c1nnc(NC(=O)OC)cc1Nc1cccc(-c2noc(CN3CCCCS3(=O)=O)n2)c1OC | 60
[2H]C([2H])([2H])NC(=O)c1nnc(NC(=O)NCC=C)cc1Nc1cccc(-c2ncn(C)n2)c1OC | 60

Now those with a lower IC50, led by results:

IC50 [nM] | Compound
30 | COC(=O)Nc1cc(Nc2cccc(-c3noc(CN4CCCCS4(=O)=O)n3)c2OC)c(C(N)=O)nn1
20 | [2H]C([2H])([2H])NC(=O)c1nnc(NC(=O)NCC)cc1Nc1cccc(-c2ncn(C)n2)c1OC
